Test results taken from PubChem BioAssay (NCI).
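Grown in 96-well plates, cells were treated for 48 hours with each compound at five concentrations. Insufficient inhibition: endpoint recorded as highest concentration tested. Definition used: TGI = concentration required for complete inhibition of growth.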

What was measured:
Experiment in all cases: DTP human tumour cell line panel, 48 h
SK-MEL-2 melanoma = tested on: SK-MEL-2 melanoma
NCI/ADR-RES ovarian = tested on: NCI/ADR-RES ovarian
IGROV1 ovarian = tested on: IGROV1 ovarian
PC-3 prostate = tested on: PC-3 prostate
SF-295 CNS = tested on: SF-295 CNS
MDA-MB-231 breast = tested on: MDA-MB-231 breast
CCRF-CEM leukemia = tested on: CCRF-CEM leukemia
HS 578T breast = tested on: HS 578T breast
HCT-15 colon = tested on: HCT-15 colon
COLO 205 colon = tested on: COLO 205 colon
NCI-H23 lung = tested on: NCI-H23 lung
HCT-116 colon = tested on: HCT-116 colon
MALME-3M melanoma = tested on: MALME-3M melanoma
MDA-N = tested on: MDA-N
SNB-75 CNS = tested on: SNB-75 CNS
SNB-19 CNS = tested on: SNB-19 CNS
A498 renal = tested on: A498 renal
NCI-H522 lung = tested on: NCI-H522 lung
HL-60(TB) leukemia = tested on: HL-60(TB) leukemia
OVCAR-4 ovarian = tested on: OVCAR-4 ovarian
CAKI-1 renal = tested on: CAKI-1 renal
U251 CNS = tested on: U251 CNS
MOLT-4 leukemia = tested on: MOLT-4 leukemia
A549 NSCLC = tested on: A549 NSCLC
HT29 colon = tested on: HT29 colon
HCC-2998 colon = tested on: HCC-2998 colon
SR leukemia = tested on: SR leukemia
DU-145 prostate = tested on: DU-145 prostate
NCI-H226 lung = tested on: NCI-H226 lung
UACC-62 melanoma = tested on: UACC-62 melanoma
UACC-257 melanoma = tested on: UACC-257 melanoma
SK-MEL-5 melanoma = tested on: SK-MEL-5 melanoma
BT-549 breast = tested on: BT-549 breast
SN12C renal = tested on: SN12C renal
786-0 renal = tested on: 786-0 renal
UO-31 renal = tested on: UO-31 renal
SW-620 colon = tested on: SW-620 colon
HOP-92 NSCLC = tested on: HOP-92 NSCLC
SK-OV-3 ovarian = tested on: SK-OV-3 ovarian
OVCAR-8 ovarian = tested on: OVCAR-8 ovarian
KM12 colon = tested on: KM12 colon
MCF7 breast = tested on: MCF7 breast
T-47D breast = tested on: T-47D breast
NCI-H460 lung = tested on: NCI-H460 lung
OVCAR-5 ovarian = tested on: OVCAR-5 ovarian
SF-539 CNS = tested on: SF-539 CNS
M14 melanoma = tested on: M14 melanoma
MDA-MB-435 = tested on: MDA-MB-435
EKVX NSCLC = tested on: EKVX NSCLC
RXF 393 renal = tested on: RXF 393 renal
ACHN renal = tested on: ACHN renal
TK-10 renal = tested on: TK-10 renal
K-562 leukemia = tested on: K-562 leukemia
SF-268 CNS = tested on: SF-268 CNS
SK-MEL-28 melanoma = tested on: SK-MEL-28 melanoma
LOX IMVI melanoma = tested on: LOX IMVI melanoma
OVCAR-3 ovarian = tested on: OVCAR-3 ovarian
RPMI-8226 leukemia = tested on: RPMI-8226 leukemia
HOP-62 NSCLC = tested on: HOP-62 NSCLC

O=S(=O)(Nc1ccccc1)c1ccc(-c2c3nc(c(-c4ccc(S(=O)(=O)Nc5ccccc5)cc4)c4ccc([nH]4)c(-c4ccc(S(=O)(=O)Nc5ccccc5)cc4)c4nc(c(-c5ccc(S(=O)(=O)Nc6ccccc6)cc5)c5ccc2[nH]5)C=C4)C=C3)cc1
TGI (SK-MEL-2 melanoma): > 31.6 µM | TGI (NCI/ADR-RES ovarian): > 31.6 µM | TGI (IGROV1 ovarian): > 100 µM | TGI (PC-3 prostate): > 31.6 µM | TGI (SF-295 CNS): > 31.6 µM | TGI (MDA-MB-231 breast): > 31.6 µM | TGI (CCRF-CEM leukemia): > 31.6 µM | TGI (HS 578T breast): > 31.6 µM | TGI (HCT-15 colon): > 31.6 µM | TGI (COLO 205 colon): > 31.6 µM | TGI (NCI-H23 lung): > 31.6 µM | TGI (HCT-116 colon): > 31.6 µM | TGI (MALME-3M melanoma): > 31.6 µM | TGI (MDA-N): > 31.6 µM | TGI (SNB-75 CNS): > 31.6 µM | TGI (SNB-19 CNS): > 31.6 µM | TGI (A498 renal): > 31.6 µM | TGI (NCI-H522 lung): > 31.6 µM | TGI (HL-60(TB) leukemia): > 31.6 µM | TGI (OVCAR-4 ovarian): 24.6 µM | TGI (CAKI-1 renal): > 31.6 µM | TGI (U251 CNS): > 31.6 µM | TGI (MOLT-4 leukemia): > 31.6 µM | TGI (A549 NSCLC): > 31.6 µM | TGI (HT29 colon): > 31.6 µM | TGI (HCC-2998 colon): > 31.6 µM | TGI (SR leukemia): > 31.6 µM | TGI (DU-145 prostate): > 31.6 µM | TGI (NCI-H226 lung): > 100 µM | TGI (UACC-62 melanoma): > 31.6 µM | TGI (UACC-257 melanoma): > 31.6 µM | TGI (SK-MEL-5 melanoma): > 31.6 µM | TGI (BT-549 breast): > 31.6 µM | TGI (SN12C renal): > 31.6 µM | TGI (786-0 renal): > 31.6 µM | TGI (UO-31 renal): > 31.6 µM | TGI (SW-620 colon): > 31.6 µM | TGI (HOP-92 NSCLC): > 31.6 µM | TGI (SK-OV-3 ovarian): > 31.6 µM | TGI (OVCAR-8 ovarian): > 31.6 µM | TGI (KM12 colon): > 31.6 µM | TGI (MCF7 breast): > 31.6 µM | TGI (T-47D breast): > 31.6 µM | TGI (NCI-H460 lung): 16.2 µM | TGI (OVCAR-5 ovarian): > 31.6 µM | TGI (SF-539 CNS): > 31.6 µM | TGI (M14 melanoma): 23.6 µM | TGI (MDA-MB-435): > 31.6 µM | TGI (EKVX NSCLC): > 31.6 µM | TGI (RXF 393 renal): > 31.6 µM | TGI (ACHN renal): 22.4 µM | TGI (TK-10 renal): > 31.6 µM | TGI (K-562 leukemia): > 31.6 µM | TGI (SF-268 CNS): > 31.6 µM

CN(C)Cc1cc(N=Nc2ccccc2)ccc1O
TGI (SK-MEL-2 melanoma): > 100 µM | TGI (SK-MEL-28 melanoma): > 100 µM | TGI (NCI/ADR-RES ovarian): > 100 µM | TGI (IGROV1 ovarian): > 100 µM | TGI (LOX IMVI melanoma): > 100 µM | TGI (PC-3 prostate): > 100 µM | TGI (SF-295 CNS): > 100 µM | TGI (MDA-MB-231 breast): > 100 µM | TGI (CCRF-CEM leukemia): > 100 µM | TGI (HS 578T breast): > 100 µM | TGI (HCT-15 colon): > 100 µM | TGI (COLO 205 colon): > 100 µM | TGI (NCI-H23 lung): > 100 µM | TGI (HCT-116 colon): > 100 µM | TGI (MALME-3M melanoma): > 100 µM | TGI (MDA-N): > 100 µM | TGI (SNB-75 CNS): > 100 µM | TGI (SNB-19 CNS): > 100 µM | TGI (A498 renal): 79.1 µM | TGI (NCI-H522 lung): 73.9 µM | TGI (HL-60(TB) leukemia): > 100 µM | TGI (CAKI-1 renal): > 100 µM | TGI (U251 CNS): > 100 µM | TGI (MOLT-4 leukemia): > 100 µM | TGI (A549 NSCLC): > 100 µM | TGI (HT29 colon): > 100 µM | TGI (HCC-2998 colon): > 100 µM | TGI (SR leukemia): > 100 µM | TGI (DU-145 prostate): > 100 µM | TGI (NCI-H226 lung): > 100 µM | TGI (UACC-62 melanoma): 69.2 µM | TGI (UACC-257 melanoma): 76.9 µM | TGI (SK-MEL-5 melanoma): 29.4 µM | TGI (BT-549 breast): > 100 µM | TGI (SN12C renal): > 100 µM | TGI (786-0 renal): > 100 µM | TGI (UO-31 renal): 89.6 µM | TGI (SW-620 colon): > 100 µM | TGI (HOP-92 NSCLC): > 100 µM | TGI (OVCAR-3 ovarian): > 100 µM | TGI (RPMI-8226 leukemia): > 100 µM | TGI (OVCAR-8 ovarian): > 100 µM | TGI (KM12 colon): > 100 µM | TGI (MCF7 breast): > 100 µM | TGI (T-47D breast): > 100 µM | TGI (NCI-H460 lung): > 100 µM | TGI (OVCAR-5 ovarian): > 100 µM | TGI (SF-539 CNS): > 100 µM | TGI (M14 melanoma): > 100 µM | TGI (MDA-MB-435): > 100 µM | TGI (EKVX NSCLC): > 100 µM | TGI (RXF 393 renal): 69.2 µM | TGI (ACHN renal): > 100 µM | TGI (HOP-62 NSCLC): > 100 µM | TGI (TK-10 renal): > 100 µM | TGI (K-562 leukemia): 58.1 µM | TGI (SF-268 CNS): > 100 µM

O=C1Nc2ccccc2C1=Nc1ccc(S(=O)(=O)Nc2nccs2)cc1
TGI (SK-MEL-2 melanoma): > 100 µM | TGI (SK-MEL-28 melanoma): > 100 µM | TGI (NCI/ADR-RES ovarian): > 100 µM | TGI (IGROV1 ovarian): > 100 µM | TGI (LOX IMVI melanoma): > 100 µM | TGI (PC-3 prostate): > 100 µM | TGI (SF-295 CNS): > 100 µM | TGI (MDA-MB-231 breast): > 100 µM | TGI (CCRF-CEM leukemia): > 100 µM | TGI (HS 578T breast): > 100 µM | TGI (HCT-15 colon): > 100 µM | TGI (COLO 205 colon): > 100 µM | TGI (NCI-H23 lung): > 100 µM | TGI (HCT-116 colon): > 100 µM | TGI (MALME-3M melanoma): > 100 µM | TGI (MDA-N): > 100 µM | TGI (SNB-75 CNS): > 100 µM | TGI (SNB-19 CNS): > 100 µM | TGI (A498 renal): > 100 µM | TGI (NCI-H522 lung): > 100 µM | TGI (HL-60(TB) leukemia): > 100 µM | TGI (OVCAR-4 ovarian): > 100 µM | TGI (CAKI-1 renal): > 100 µM | TGI (U251 CNS): > 100 µM | TGI (MOLT-4 leukemia): > 100 µM | TGI (A549 NSCLC): > 100 µM | TGI (HT29 colon): > 100 µM | TGI (HCC-2998 colon): > 100 µM | TGI (SR leukemia): > 100 µM | TGI (DU-145 prostate): > 100 µM | TGI (NCI-H226 lung): > 100 µM | TGI (UACC-62 melanoma): > 100 µM | TGI (UACC-257 melanoma): > 100 µM | TGI (SK-MEL-5 melanoma): > 100 µM | TGI (BT-549 breast): > 100 µM | TGI (SN12C renal): > 100 µM | TGI (786-0 renal): > 100 µM | TGI (UO-31 renal): > 100 µM | TGI (SW-620 colon): > 100 µM | TGI (HOP-92 NSCLC): > 100 µM | TGI (SK-OV-3 ovarian): > 100 µM | TGI (OVCAR-3 ovarian): > 100 µM | TGI (OVCAR-8 ovarian): > 100 µM | TGI (KM12 colon): > 100 µM | TGI (MCF7 breast): > 100 µM | TGI (T-47D breast): > 100 µM | TGI (NCI-H460 lung): > 100 µM | TGI (OVCAR-5 ovarian): > 100 µM | TGI (SF-539 CNS): > 100 µM | TGI (M14 melanoma): > 100 µM | TGI (MDA-MB-435): > 100 µM | TGI (EKVX NSCLC): > 100 µM | TGI (RXF 393 renal): > 100 µM | TGI (ACHN renal): > 100 µM | TGI (HOP-62 NSCLC): > 100 µM | TGI (TK-10 renal): > 100 µM | TGI (K-562 leukemia): > 100 µM | TGI (SF-268 CNS): > 100 µM
